In ChEMBL document CHEMBL3045804, “Synthesis and Herbicidal Activity of 2-Benzylamino-4-methyl-6-trifluoromethyl-1, 3, 5-triazune Derivatives” (J Pestic Sci, 1998):

What was measured:
Type in all cases: functional
[1] = system: Schoenoplectiella juncoides; test: Herbicidal activity against Schoenoplectiella juncoides assessed as killing at 100 g/10 acre measured after 3 weeks by pre-emergence/paddy application test
Echinochloa crus-galli [2] = test: Herbicidal activity against Echinochloa crus-galli (barnyard grass) assessed as killing at 100 g/10 acre measured after 3 weeks by pre-emergence/field application test
Stellaria media [3] = test: Herbicidal activity against Stellaria media assessed as killing at 100 g/10 acre measured after 3 weeks by post-emergence/foliar application test
Pontederia vaginalis [4] = test: Herbicidal activity against Monochoria vaginalis assessed as killing at 100 g/10 acre measured after 3 weeks by pre-emergence/paddy application test
Echinochloa crus-galli [5] = test: Herbicidal activity against Echinochloa crus-galli (barnyard grass) assessed as killing at 100 g/10 acre measured after 3 weeks by post-emergence/foliar application test
Stellaria media [6] = test: Herbicidal activity against Stellaria media assessed as killing at 100 g/10 acre measured after 3 weeks by pre-emergence/field application test
Digitaria ciliaris [7] = test: Herbicidal activity against Digitaria ciliaris assessed as killing at 100 g/10 acre measured after 3 weeks by pre-emergence/field application test
Digitaria ciliaris [8] = test: Herbicidal activity against Digitaria ciliaris assessed as killing at 100 g/10 acre measured after 3 weeks by post-emergence/foliar application test
Rotala indica [9] = test: Herbicidal activity against Rotala indica assessed as killing at 100 g/10 acre measured after 3 weeks by pre-emergence/paddy application test
Chenopodium album [10] = test: Herbicidal activity against Chenopodium album assessed as killing at 100 g/10 acre measured after 3 weeks by pre-emergence/field application test
Echinochloa oryzicola [11] = test: Herbicidal activity against Echinochloa oryzicola assessed as killing at 100 g/10 acre measured after 3 weeks by pre-emergence/paddy application test
Chenopodium album [12] = test: Herbicidal activity against Chenopodium album assessed as killing at 100 g/10 acre measured after 3 weeks by post-emergence/foliar application test
Echinochloa crus-galli [13] = test: Herbicidal activity against Echinochloa crus-galli (barnyard grass) assessed as killing at 400 g/10 acre measured after 3 weeks by post-emergence/foliar application test
Stellaria media [14] = test: Herbicidal activity against Stellaria media assessed as killing at 800 g/10 acre measured after 3 weeks by pre-emergence/field application test
Chenopodium album [15] = test: Herbicidal activity against Chenopodium album assessed as killing at 800 g/10 acre measured after 3 weeks by pre-emergence/field application test
Stellaria media [16] = test: Herbicidal activity against Stellaria media assessed as killing at 400 g/10 acre measured after 3 weeks by post-emergence/foliar application test
[17] = system: Schoenoplectiella juncoides; test: Herbicidal activity against Schoenoplectiella juncoides assessed as killing at 800 g/10 acre measured after 3 weeks by pre-emergence/paddy application test
Echinochloa crus-galli [18] = test: Herbicidal activity against Echinochloa crus-galli (barnyard grass) assessed as killing at 800 g/10 acre measured after 3 weeks by pre-emergence/field application test
Pontederia vaginalis [19] = test: Herbicidal activity against Monochoria vaginalis assessed as killing at 800 g/10 acre measured after 3 weeks by pre-emergence/paddy application test
Rotala indica [20] = test: Herbicidal activity against Rotala indica assessed as killing at 800 g/10 acre measured after 3 weeks by pre-emergence/paddy application test
Echinochloa oryzicola [21] = test: Herbicidal activity against Echinochloa oryzicola assessed as killing at 800 g/10 acre measured after 3 weeks by pre-emergence/paddy application test
Digitaria ciliaris [22] = test: Herbicidal activity against Digitaria ciliaris assessed as killing at 800 g/10 acre measured after 3 weeks by pre-emergence/field application test
Digitaria ciliaris [23] = test: Herbicidal activity against Digitaria ciliaris assessed as killing at 400 g/10 acre measured after 3 weeks by post-emergence/foliar application test
Chenopodium album [24] = test: Herbicidal activity against Chenopodium album assessed as killing at 400 g/10 acre measured after 3 weeks by post-emergence/foliar application test

SMILES | Activity [1] | Activity (Echinochloa crus-galli [2]) | Activity (Stellaria media [3]) | Activity (Pontederia vaginalis [4]) | Activity (Echinochloa crus-galli [5]) | Activity (Stellaria media [6]) | Activity (Digitaria ciliaris [7]) | Activity (Digitaria ciliaris [8]) | Activity (Chenopodium album [10]) | Activity (Echinochloa crus-galli [13]) | Activity (Stellaria media [14]) | Activity (Chenopodium album [15]) | Activity [17] | Activity (Echinochloa crus-galli [18]) | Activity (Pontederia vaginalis [19]) | Activity (Rotala indica [20]) | Activity (Echinochloa oryzicola [21]) | Activity (Digitaria ciliaris [22]) | Activity (Digitaria ciliaris [23]) | Activity (Chenopodium album [24]) | further results
Cc1nc(NCc2ccc(Cl)cc2)nc(C(F)(F)F)n1 | 76% | 51% | 100% | 100% | 26% | 91% | 91% | 76% | 100% |  |  |  |  |  |  |  |  |  |  |  | Activity (Rotala indica [9]): 91%; Activity (Echinochloa oryzicola [11]): 76%; Activity (Chenopodium album [12]): 100%
Cc1nc(NCc2ccc(C(C)(C)C)cc2)nc(C(F)(F)F)n1 | 1% | 26% | 100% | 26% | 26% | 91% | 76% | 0% | 91% |  |  |  |  |  |  |  |  |  |  |  | Activity (Rotala indica [9]): 91%; Activity (Echinochloa oryzicola [11]): 26%; Activity (Chenopodium album [12]): 76%
Cc1nc(NCc2ccccc2)nc(C(Cl)(Cl)Cl)n1 |  |  |  |  |  |  |  |  |  | 0% | 0% | 0% | 51% | 0% | 100% | 91% | 76% | 0% | 0% | 0% | Activity (Stellaria media [16]): 0%
Cc1nc(NCc2ccc(F)cc2)nc(C(F)(F)F)n1 | 51% | 76% | 100% | 91% | 51% | 100% | 76% | 91% | 91% |  |  |  |  |  |  |  |  |  |  |  | Activity (Rotala indica [9]): 100%; Activity (Echinochloa oryzicola [11]): 76%
Cc1nc(NCc2ccccc2Cl)nc(C(F)(F)F)n1 | 1% | 1% | 76% | 26% | 0% | 76% | 1% | 0% | 26% |  |  |  |  |  |  |  |  |  |  |  | Activity (Rotala indica [9]): 76%; Activity (Echinochloa oryzicola [11]): 0%; Activity (Chenopodium album [12]): 26%
Cc1nc(NCc2cccc(Cl)c2)nc(C(F)(F)F)n1 | 51% | 1% | 100% | 51% | 51% |  | 51% | 91% | 76% |  |  |  |  |  |  |  |  |  |  |  | Activity (Rotala indica [9]): 100%; Activity (Echinochloa oryzicola [11]): 51%; Activity (Chenopodium album [12]): 100%
Cc1nc(NCc2ccc(C(F)(F)F)cc2)nc(C(F)(F)F)n1 | 51% | 76% | 100% | 76% | 1% | 100% | 100% | 100% | 91% |  |  |  |  |  |  |  |  |  |  |  | Activity (Rotala indica [9]): 91%; Activity (Echinochloa oryzicola [11]): 51%; Activity (Chenopodium album [12]): 100%
Cc1nc(NCc2ccccc2)nc(C(F)(F)F)n1 |  |  |  |  |  |  |  |  |  | 51% | 100% |  | 76% | 100% | 100% | 91% | 76% | 100% | 76% | 100% | 
Cc1nc(NCCc2ccccc2)nc(C(F)(F)F)n1 |  |  |  |  |  |  |  |  |  | 0% |  | 91% | 26% | 51% | 76% | 91% | 26% | 76% | 0% | 91% | 
Cc1nc(NCc2ccc(Br)cc2)nc(C(F)(F)F)n1 | 76% | 76% | 100% | 91% | 26% | 91% | 91% | 100% | 100% |  |  |  |  |  |  |  |  |  |  |  | Activity (Rotala indica [9]): 100%; Activity (Echinochloa oryzicola [11]): 51%; Activity (Chenopodium album [12]): 100%
Cc1ncnc(NCc2ccccc2)n1 |  |  |  |  |  |  |  |  |  | 0% | 0% | 0% | 0% | 0% | 0% | 0% | 51% | 0% | 0% | 0% | Activity (Stellaria media [16]): 0%
CCNc1nc(Cl)nc(NC(C)C)n1 [ATRAZINE] |  |  | 100% |  | 26% |  |  | 0% |  |  |  |  |  |  |  |  |  |  |  |  | Activity (Chenopodium album [12]): 100%
Cc1nc(NCc2ccccc2)nc(-c2ccccc2)n1 |  |  |  |  |  |  |  |  |  | 0% | 0% | 0% | 0% | 0% | 0% | 0% | 0% | 0% | 0% | 0% | Activity (Stellaria media [16]): 0%
CCc1nc(NCc2ccccc2)nc(C(F)(F)F)n1 |  |  |  |  |  |  |  |  |  | 1% | 100% |  | 100% | 51% | 100% | 91% | 91% | 100% | 1% | 51% | 
CCCc1nc(C)nc(NCc2ccccc2)n1 |  |  |  |  |  |  |  |  |  | 1% | 0% | 0% | 1% | 0% | 26% | 26% | 26% | 0% | 1% | 91% | 
Cc1nc(C)nc(NCc2ccccc2)n1 |  |  |  |  |  |  |  |  |  | 1% | 0% | 0% | 0% | 0% | 100% | 1% | 51% | 0% | 1% | 51% | 
Cc1ccc(CNc2nc(C)nc(C(F)(F)F)n2)cc1 | 0% | 76% | 100% | 26% | 1% | 91% | 1% | 0% | 91% |  |  |  |  |  |  |  |  |  |  |  | Activity (Rotala indica [9]): 76%; Activity (Echinochloa oryzicola [11]): 51%; Activity (Chenopodium album [12]): 91%
c1ccc(CNc2ncncn2)cc1 |  |  |  |  |  |  |  |  |  | 0% | 0% | 0% | 0% | 0% | 0% | 0% | 0% | 0% | 0% | 0% | Activity (Stellaria media [16]): 0%
CC(C)c1nc(NCc2ccccc2)nc(C(F)(F)F)n1 |  |  |  |  |  |  |  |  |  | 0% | 26% | 76% | 100% | 76% | 100% | 91% | 100% | 76% | 0% | 0% | Activity (Stellaria media [16]): 0%
COc1ccc(CNc2nc(C)nc(C(F)(F)F)n2)cc1 | 1% | 76% | 100% | 51% | 26% | 91% | 0% | 26% | 76% |  |  |  |  |  |  |  |  |  |  |  | Activity (Rotala indica [9]): 76%; Activity (Echinochloa oryzicola [11]): 26%; Activity (Chenopodium album [12]): 100%
Cc1nc(NCCCc2ccccc2)nc(C(F)(F)F)n1 |  |  |  |  |  |  |  |  |  | 91% | 100% | 76% | 1% | 76% | 51% | 51% | 1% | 100% | 76% | 100% | 
CCc1nc(C)nc(NCc2ccccc2)n1 |  |  |  |  |  |  |  |  |  |  |  | 51% | 1% | 0% | 51% | 51% | 76% | 0% |  |  | 
CCNc1nc(Cl)nc(NCC)n1 [SIMAZINE] |  | 26% |  |  |  | 91% | 51% |  | 91% |  |  |  |  |  |  |  |  |  |  |  | 
